The source of these data is patent US20080009512A1, “Tetrahydroquinolones and Aza-Analogues Thereof for Use as Dpp-IV Inhibitors in the Treatment of Diabetes” (ASTRAZENECA AB, priority 2004, published 2008).

The target in this experiment is T1, DPP-IV activity from human colonic carcinoma cell extracts (Caco-2) (Homo sapiens, UniProt P27487).
T1 construct: Cell extract is prepared from cells solubilized in 10 mM Tris HCI, 0.15 M NaCI, 0.04 t.i.u.aprotinin, 0.5% nonidet-P40; host or cells: Caco-2, differentiated to induce DPP-IV expression; detergent-solubilized extract
T1 sequence (P27487 whole entry): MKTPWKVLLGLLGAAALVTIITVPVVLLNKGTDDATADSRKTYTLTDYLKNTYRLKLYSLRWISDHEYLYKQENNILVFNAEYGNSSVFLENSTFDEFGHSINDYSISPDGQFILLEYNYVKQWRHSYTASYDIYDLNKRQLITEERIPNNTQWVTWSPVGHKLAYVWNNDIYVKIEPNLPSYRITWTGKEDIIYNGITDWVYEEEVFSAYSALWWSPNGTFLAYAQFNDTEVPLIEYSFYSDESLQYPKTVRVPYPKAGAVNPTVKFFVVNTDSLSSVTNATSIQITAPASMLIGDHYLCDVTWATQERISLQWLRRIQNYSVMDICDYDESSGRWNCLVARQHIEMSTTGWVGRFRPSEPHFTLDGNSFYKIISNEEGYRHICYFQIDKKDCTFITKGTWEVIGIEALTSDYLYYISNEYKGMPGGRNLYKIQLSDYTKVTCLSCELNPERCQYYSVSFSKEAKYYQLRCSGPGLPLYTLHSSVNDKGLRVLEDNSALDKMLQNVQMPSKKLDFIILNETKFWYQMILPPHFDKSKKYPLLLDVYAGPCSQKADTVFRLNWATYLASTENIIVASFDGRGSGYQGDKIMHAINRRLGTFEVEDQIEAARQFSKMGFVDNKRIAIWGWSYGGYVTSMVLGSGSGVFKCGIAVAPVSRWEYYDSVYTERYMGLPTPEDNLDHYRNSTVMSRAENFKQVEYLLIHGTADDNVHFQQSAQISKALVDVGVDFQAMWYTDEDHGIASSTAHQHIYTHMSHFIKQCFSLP
The experiment in a line: caco-2 DPP-IV Assay (CaCo2 extract, fluorescence, H-Gly-Pro-AMC substrate). Type of experiment: biochemical. To be noted: solubilized Caco-2 protein extract; 11-point dose-response curves, 4 parameter logistic function. As to the method:
As indicated above, all of the compounds, and their corresponding pharmaceutically-acceptable salts, are useful in inhibiting DPP-IV. […] The human colonic carcinoma cell line Caco-2 was obtained from the American Type Culture Collection (ATCC HTB 37). Differentiation of the cells to induce DPP-IV expression was accomplished as described by Reisher, et al. (Proc. Natl. Acad. Sci., Vol. 90, pgs. 5757-5761 (1993)). Cell extract is prepared from cells solubilized in 10 mM Tris HCI, 0.15 M NaCI, 0.04 t.i.u.aprotinin, 0.5% nonidet-P40, pH 8.0, which is centrifuged at 35,000 g for 30 min at 4° C. to remove cell debris.
The […] assay is conducted by adding 20 μg solubilized Caco-2 protein or purified porcine kidney DPP-IV, in a final volume of 10 ul in assay buffer (25 mM Tris HCl pH 7.4, 140 mM NaCl, 10 mM KCl, 0.1% Triton-x-100) to microtiter plate wells. […] The endpoint is determined by measuring absorbance at 405 nm in a Labsystems microtiter plate reader.
Activity of CaCo2 extract is also measured employing a modified version of the assay described in Kubota, et al. (Clin. Exp. Immunol., Vol. 89, pgs. 192-197 (1992)). […] After the 10 min. reaction, florescence is measured using a Tecan Ultra fluorimeter (Excitation 360 nm Emission 465 nm). […]

For orientation: IC50 means the concentration at which inhibition is half-maximal. A higher IC50 goes with weaker potency.

Turning to `N[C@@H](CC(=O)NC1Cc2ccccc2NC1=O)Cc1ccccc1F` (stereo partly drawn) [Example 1, (3R)-3-Amino-4-(2-fluorophenyl)-N-(2-oxo-1,2,3,4-tetrahydroquinolin-3-yl)butanamide], it took 580 nM to reach half-maximal inhibition (IC50).
